Laboratory results reported in ChEMBL document CHEMBL6103651, “Total Syntheses, Absolute Configuration, and Cytotoxicity Evaluation of Ugonins L, S, U, and Z from the Rhizomes of Helminthostachys zeylanica” (J Nat Prod, 2025).

How the values were obtained:
HT-29 = test: Cytotoxicity against human HT-29 cells assessed as cell growth inhibition incubated for 6 hrs by SRB assay; assay type: functional, cell-based; details: HT-29, 6 h
MCF7 = test: Cytotoxicity against human MCF7 cells assessed as cell growth inhibition incubated for 6 hrs by SRB assay; assay type: functional, cell-based; details: MCF7, 6 h
CCRF-CEM = test: Cytotoxicity against human CEM cells assessed as cell growth inhibition incubated for 6 hrs by SRB assay; assay type: functional, cell-based
NCI-H460 = test: Cytotoxicity against human NCI-H460 cells assessed as cell growth inhibition incubated for 6 hrs by SRB assay; assay type: functional, cell-based; details: NCI-H460, 6 h
[1] = Cytotoxicity against fibroblasts (unknown origin) assessed as cell growth inhibition incubated for 6 hrs by SRB assay; assay type: toxicity, cell-based, Fibroblast

| Structure (SMILES) | IC50 (HT-29) | IC50 (MCF7) | IC50 (CCRF-CEM) | IC50 (NCI-H460) | IC50 at 6 h [1] |
| --- | --- | --- | --- | --- | --- |
| CC1(C)CCC[C@@]2(C)Oc3cc4oc(-c5ccc(O)c(O)c5)cc(=O)c4c(O)c3C[C@@H]12 | 37.1 µM | 19.1 µM | 5.2 µM | 7.1 µM | 37.1 µM |
| CC1(C)CCC[C@@]2(C)Oc3cc(O)c4c(=O)cc(-c5ccc(O)c(O)c5)oc4c3C[C@@H]12 | 27.5 µM | 28.2 µM | 16.4 µM | 18.3 µM | 27.5 µM |
| CC1(C)CCC[C@]2(C)Oc3cc(O)c4c(=O)cc(-c5ccc(O)c(O)c5)oc4c3C[C@H]12 | 33.2 µM | 26 µM | 1.7 µM | 17.5 µM | 33.2 µM |
| COc1cccc2c1C(=O)c1c(O)c3c(c(O)c1C2=O)C[C@@](O)(C(=O)CO)C[C@@H]3O[C@H]1C[C@H](N)[C@H](O)[C@H](C)O1 [DOXORUBICIN] | 0.23 µM | 0.54 µM | 0.11 µM | 0.01 µM | 56.3 µM |
| CC1(C)CCC[C@]2(C)Oc3cc4oc(-c5ccc(O)c(O)c5)cc(=O)c4c(O)c3C[C@H]12 | 21.9 µM | 16.7 µM | 4.2 µM | 2.2 µM | 24.5 µM |
| CC1(C)CCC[C@@]2(C)Oc3c(c(O)cc4oc(-c5ccc(O)c(O)c5)cc(=O)c34)C[C@H]12 | 36 µM | 17.7 µM | 4.8 µM |  | 36 µM |
| CC1(C)CCC[C@]2(C)Oc3c(c(O)cc4oc(-c5ccc(O)c(O)c5)cc(=O)c34)C[C@@H]12 | 24.5 µM | 6.5 µM | 4.2 µM |  | 24.5 µM |
| CC1(C)CCC[C@]2(C)Oc3c(c(O)cc4oc(-c5ccc(O)c(O)c5)cc(=O)c34)C[C@H]12 | 34.1 µM | 18.9 µM | 5.9 µM |  | 34.1 µM |
| CC1(C)CCC[C@@]2(C)Oc3c(c(O)cc4oc(-c5ccc(O)c(O)c5)cc(=O)c34)C[C@@H]12 [UGONIN S] | 21.9 µM | 8.8 µM | 6.2 µM |  | 21.9 µM |
